In patent US20230251278A1, “ACQUISITION METHOD OF VALUE RELATING TO TRIGLYCERIDE METABOLIC CAPACITY, PRESENTATION METHOD OF DISEASE INFORMATION, PRESENTATION METHOD OF DISEASE DIFFERENTIATION INFORMATION, PRESENTATION METHOD OF THERAPY EFFICACY INFORMATION, PRESENTATION METHOD OF THERAPEUTIC EFFECT INFORMATION, TEST REAGENT …” (OSAKA UNIVERSITY, priority 2020, published 2023):

Assays:
[1] = test system: triglyceride deposit-type atherosclerosis of the coronary artery; test: MCT dietary therapy: coronary artery CT evaluation of fat accumulated in coronary arteries; type: in vivo, human
Method: A person with genetic ATGL (Adipose triglyceride lipase) deficiency. Since it was confirmed that the patient was suffering from triglyceride deposit-type atherosclerosis by coronary CT inspection, MCT dietary therapy was started. The patient ingested 6 to 9 g of tricaprin as the MCT per 1 day, 3 times a day after meals for 50 days.
Before the start of the MCT dietary therapy and after 50 days from the start of the MCT dietary therapy, normal coronary artery CT was performed to acquire a three-dimensional DICOM image of the left anterior descending branch. The samples were resampled in 0.1 mm^3 of voxels and layer-by-layer coloring was performed based on intra-voxel CT values. Smoothing was performed between voxels. The layer-by-layer coloring was performed as follows.
Light gray: between −25 HU to 0 HU (fat content is high) Middle gray 0 HU to 40 HU (fat content is medium) Dark gray: 40 HU to 125 HU (no fat) (iii) Results
A person who has suffered from refractory angina pectoris for years. Even when a combination treatment of a plurality of antianginal drugs and statins or the like was performed, the angina pectoris was rather exacerbated. Since it was confirmed that the patient was suffering from triglyceride deposit-type atherosclerosis by coronary CT inspection, MCT dietary therapy was started. The patient ingested 1.5 g of tricaprin as the MCT per 1 day, 3 times a day after meals for 4 years.
Before the start of the MCT dietary therapy and after 4 years from the start of the MCT dietary therapy, normal coronary artery CT was performed, and the layer-by-layer coloring of the inside of the left anterior descending branch was performed in the same manner as described in the case 1.

[2] = test system: leucocytes (neutrophils) of the case 1 patient; test: Ability of leucocytes to excrete Alexa Fluor 680-BMPP before and after tricaprin treatment; type: in vivo, human
Method: Next, the abilities for taking up and for excreting the Alexa Fluor™ 680-BMPP were compared using whole blood collected from the patients in the case 1 described in the above 6-2. before and after the tricaprin treatment.
Preparation of the leucocyte and measurement of the abilities for taking up and for excreting the Alexa Fluor™ 680-BMPP using the leucocyte cells were performed according to the experimental examples.

[3] = test system: leucocytes (neutrophils, monocytes, lymphocytes); test: Uptake of fluorescence-labeled BMPP by leucocytes in whole blood (FACS); type: cell-based, human; conditions: monocytes and lymphocytes, whole blood of healthy individual, 0.0074, 0.022, 0.067, 0.2 μM, room temperature 30 minutes
Method: Each 200 μl of whole blood collected from a healthy individual using a blood collection tube containing heparin was used as a sample. As a fluorescent-labeled BMPP-added group, the Alexa Fluor™ 680-BMPP prepared in the experimental example 1 was added to the samples so that a final concentration of the Alexa Fluor™ 680-BMPP was 0.0074 μM, 0.022 μM, 0.067 μM, and 0.2 μM, respectively. As a negative control group, Alexa Fluor™ 680 NHS Ester hydrolysate (hereinafter, simply referred to as Alexa Fluor™ 680) was added to the samples so that a final concentration of the Alexa Fluor™ 680 was 0.0074 μM, 0.022 μM, 0.067 μM, and 0.2 μM, respectively. […]
After the uptake is completed, 2 ml of BD FACS Lysing Solution (BD Biosciences) was added to the sample, and the mixture was allowed to stand at room temperature for 30 minutes to hemolyze erythrocytes, and then leucocytes were collected as precipitates by centrifugation at room temperature at 1500 rpm for 30 minutes, and resuspended in PBS to prepare a sample for FACS analysis. The FACS analysis was performed by preparing gates containing lymphocytes, monocytes, or neutrophils in advance by dot plots of forward-scattered light and side-scattered light using leucocytes prepared in the same manner without adding the Alexa Fluor™ 680-BMPP, and measuring the number of cells until […] cells were counted in the gate. […]

[4] = test system: leucocytes (neutrophils, monocytes, lymphocytes); test: Uptake and excretion of Alexa Fluor 680-BMPP by leucocytes of healthy individuals and primary TGCV patients (FACS); type: cell-based, human
Method: 5.5 ml of whole blood collected from healthy individuals and patients using the blood collection tube containing heparin was added with the leucocyte separating agent (HetaSep, Veritas Corporation) in an amount of one fifth of the whole blood, leucocytes were collected according to a manufacturer's instruction, and the cells were resuspended in 2.1 ml of DMEM medium without serum (hereinafter, DMEM serum-free medium). Alexa Fluor™ 680-BMPP uptake ability and Alexa Fluor™ 680-BMPP excretion ability of the leucocytes were measured using 400 μl each as described below.
40 μl of the Alexa Fluor™ 680-BMPP or 40 μl of the Alexa Fluor™ 680 was added to 400 μl of the cell resuspension so that a final concentration of the Alexa Fluor™ 680-BMPP or the Alexa Fluor™ 680 was 0.067 μM, and a reaction for uptake the fluorescence-labeled substance was performed by standing at room temperature for 30 minutes. A sample for measurement immediately after the uptake was added with BD FACS Lysing Solution immediately after the reaction to be hemolyzed and then, subjected to FACS. On the other hand, as for a sample for measurement of excretion, the Alexa Fluor™ 680-BMPP or the Alexa Fluor™ 680 was removed from the sample by centrifugation at room temperature, cells were resuspended in 500 μl of DMEM serum-free medium, and the cells were allowed to stand at 37° C. for 2 hours to be subjected to an excretion reaction of the taken Alexa Fluor™ 680-BMPP or Alexa Fluor™ 680, then BD FACS Lysing Solution was added, and the sample was subjected to FACS in the same manner as the sample immediately after the uptake. FACS analysis was performed in the same manner as described in the experimental example 2, and for each of neutrophils, monocytes, and lymphocytes, fluorescence intensity of the sample immediately after uptake was compared with fluorescence intensity of the sample for measurement of excretion.

[5] = test system: leucocytes (neutrophils, monocytes, lymphocytes); test: Influence of excretion time on Alexa Fluor 680-BMPP excretion amount (FACS); type: cell-based, human; conditions: leucocytes of two healthy individuals; 0.067 μM; 37° C.; histograms did not shift from 10 to 120 minutes
Method: 6 ml of each whole blood collected from two healthy individuals using the blood collection tube containing heparin was added with the HetaSep (Veritas Corporation) in an amount of one fifth of the whole blood, leucocytes were collected according to the manufacturer's instruction, and the cells were resuspended in 2.1 ml of the DMEM serum-free medium. Alexa Fluor™ 680-BMPP uptake ability and Alexa Fluor™ 680-BMPP excretion ability of the leucocytes were measured using 400 μl each as described below.
40 μl of the Alexa Fluor™ 680-BMPP was added to 400 μl of the cell resuspension so that a final concentration of the Alexa Fluor™ 680-BMPP was 0.067 μM, and a reaction for uptake the Alexa Fluor™ 680-BMPP was performed by standing at room temperature for 30 minutes. A sample for measurement immediately after the uptake was added with BD FACS Lysing Solution immediately after the reaction to be hemolyzed and then, subjected to FACS. […] FACS analysis was performed in the same manner as described in the experimental example 2, and for each of neutrophils, monocytes, and lymphocytes, fluorescence intensities at each excretion time were compared each other.

Row | Compound | effect on triglyceride deposit-type atherosclerosis of the coronary artery (coronary CT) ([1]; case 1: genetic ATGL deficiency, 6 to 9 g per day, 50 days) | effect on triglyceride deposit-type atherosclerosis of the coronary artery (coronary CT) ([1]; case 2: refractory angina pectoris, 1.5 g per day, 4 years) | diameter of the blood flow site (coronary CT) ([1]; case 2, 1.5 g per day, 4 years) | ability for excreting the Alexa Fluor 680-BMPP in the patient after the treatment ([2]; case 1 patient leucocytes after tricaprin (MCT dietary therapy) treatment) | uptake amount of the Alexa Fluor 680-BMPP (shift of fluorescence intensity histogram) [3] | ability to excrete the Alexa Fluor 680-BMPP, primary TGCV patient versus healthy individuals ([4]; leucocytes, overall conclusion) | ability to excrete the Alexa Fluor 680-BMPP (leftward shift of fluorescence intensity) ([4]; lymphocytes of healthy individuals, 0.067 μM, excretion 37° C. 2 hours) | ability to excrete the Alexa Fluor 680-BMPP compared to healthy individuals ([4]; lymphocytes of primary TGCV patients, 0.067 μM, excretion 37° C. 2 hours) | ability to excrete the Alexa Fluor 680-BMPP (leftward shift of histogram) ([4]; neutrophils of healthy individuals, 0.067 μM, excretion 37° C. 2 hours) | ability to excrete the Alexa Fluor 680-BMPP compared to healthy individuals ([4]; neutrophils of primary TGCV patients, 0.067 μM, excretion 37° C. 2 hours) | excretion time at which the taken Alexa Fluor 680-BMPP was sufficiently excreted (almost background) [5] [min] | ability for excreting the Alexa Fluor 680-BMPP compared to healthy individuals ([2]; leucocytes (neutrophils) of case 1 patient before the start of the treatment)
1 | CCCCCCCCCC(=O)OCC(COC(=O)CCCCCCCCC)OC(=O)CCCCCCCCC [tricaprin] | regression | regression | significantly increased | restored to the same level as in healthy individuals |  |  |  |  |  |  |  | 
2 | 15-phenyl-3-methylpentadenoic acid labeled with Alexa Fluor™ 680 [Alexa Fluor™ 680-BMPP] |  |  |  |  | concentration dependent increase | lower | demonstrated | reduced | sufficiently demonstrated | clearly reduced | 10 | clearly reduced
